The text below walks through data of ChEMBL document CHEMBL1201862, “PubChem BioAssay data set” (2004).

Test systems include DMS-273; UACC-62; CCRF-CEM; SNB-19; IGROV-1; K562; U-251; CAKI-1; OVCAR-8; A498; M14; HCT-15; HCT-116; UACC-257; NCI-H226.
Common to all, as to assay: inhibition of tumour cell growth, NCI panel, 48 h

Structures are written as SMILES.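 In this assay, cells in 96-well plates receive the compound at five concentrations for 48 hours. Endpoints are linearly interpolated between the surrounding concentrations. The concentration for 50% growth inhibition is given as GI50.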 The source made the active and inactive calls. Rule as the data show it: active = GI50 up to about 1.1 µM and inactive = higher.

With `CCOC(=O)c1s/c(=N\Nc2nc3ccccc3cc2C2OCCO2)n(Cc2ccccc2)c1C`, the GI50 in the test with DMS-273, with UACC-62, with CCRF-CEM, in the test on SNB-19, in the test with IGROV-1 and in the test with K562 was > 100 µM (inactive) each time. In addition, the GI50 in the test with U-251 was > 100 µM (inactive); in the test with CAKI-1, > 100 µM (inactive); in the test with OVCAR-8, > 100 µM (inactive); with A498, > 100 µM (inactive); in the test on M14, > 100 µM (inactive); with HCT-15, above 100 µM. Besides, the GI50 with HCT-116, in the test with UACC-257 and in the test on NCI-H226 was > 100 µM (inactive) each time.
Turning to `N#Cc1nc(Nc2ccc(Cl)cc2)sc1N`, the GI50 in the test on DMS-273 was 13.2 µM (inactive); with UACC-62, 10.1 µM (inactive); in the test on CCRF-CEM, 2.94 µM (inactive); with SNB-19 it was 22.1 µM (inactive); in the test on IGROV-1, 19.5 µM (inactive); with K562, 3.91 µM (inactive). Also, the GI50 was 10.2 µM (inactive) in the test with U-251; 7.57 µM (inactive) with CAKI-1; 16.7 µM (inactive) in the test on OVCAR-8; 10.9 µM (inactive) in the test on A498; 23.6 µM (inactive) in the test on M14; 7.18 µM in the test with HCT-15. For the same compound, the GI50 was 6.44 µM (inactive) in the test with HCT-116, 10.2 µM (inactive) in the test with UACC-257 and 19.8 µM (inactive) in the test with NCI-H226.
On to `CCCNC(=O)C(C)(Cl)C(=O)c1ccccc1O` (stereo not given), for which the GI50 in the test on DMS-273, with UACC-62, in the test on CCRF-CEM, with SNB-19, with IGROV-1 and in the test with K562 was > 100 µM (inactive) each time. In addition, the GI50 was > 100 µM (inactive) in the test with U-251; > 100 µM (inactive) with CAKI-1; > 100 µM (inactive) with OVCAR-8; > 100 µM (inactive) in the test on A498; > 100 µM (inactive) in the test on M14; above 100 µM in the test on HCT-15. Further, the GI50 with HCT-116, with UACC-257 and in the test on NCI-H226 was > 100 µM (inactive) in each case.
On to `Clc1c(Cl)c2c(Cl)c(Cl)c1C[PH](c1ccccc1)(c1ccccc1)CC[PH](c1ccccc1)(c1ccccc1)Cc1c(Cl)c(Cl)c(c(Cl)c1Cl)C[PH](c1ccccc1)(c1ccccc1)CC[PH](c1ccccc1)(c1ccccc1)C2`, for which the GI50 is 2.42 µM (inactive) with DMS-273; 1.85 µM (inactive) with UACC-62; 2.46 µM (inactive) in the test with CCRF-CEM; 2.67 µM (inactive) in the test with SNB-19; 2.86 µM (inactive) in the test with IGROV-1; 2.09 µM (inactive) in the test on K562. The GI50 with U-251 is 3.22 µM (inactive); in the test with CAKI-1 it was 7.06 µM (inactive); in the test with OVCAR-8, 3.29 µM (inactive); with A498, 11.4 µM (inactive); in the test with M14, 4.51 µM (inactive); with HCT-15 it was 8.39 µM. For the same compound, the GI50 with HCT-116 is 1.79 µM (inactive); in the test on UACC-257 it was 2.38 µM (inactive); in the test on NCI-H226, 5.07 µM (inactive).
Turning to `CCOC(=O)/C=C(/CN1C(=O)c2ccccc2C1=O)c1ccccc1`, the GI50 in the test with DMS-273, in the test with UACC-62, in the test with CCRF-CEM, in the test on SNB-19, in the test with IGROV-1 and with K562 was > 100 µM (inactive) in each case. Besides, the GI50 in the test on U-251 was > 100 µM (inactive); in the test with CAKI-1, > 100 µM (inactive); with OVCAR-8, > 100 µM (inactive); in the test on A498 it was > 100 µM (inactive); in the test with M14 it was > 100 µM (inactive); in the test with HCT-15 it was above 100 µM. Further, the GI50 in the test on HCT-116, in the test with UACC-257 and with NCI-H226 was > 100 µM (inactive) each time.
Consider `Cc1ccc(C(=O)C#Cc2cnc(O)nc2O)cc1`, for which the GI50 is 16.1 µM (inactive) in the test on DMS-273; 10.2 µM (inactive) with UACC-62; 3.44 µM (inactive) with CCRF-CEM; 18.2 µM (inactive) in the test on SNB-19; 16.7 µM (inactive) in the test on IGROV-1; 6.07 µM (inactive) with K562. Further, the GI50 is 12.9 µM (inactive) in the test with U-251; 16.9 µM (inactive) with CAKI-1; 12.4 µM (inactive) with OVCAR-8; 14.7 µM (inactive) in the test with A498; 13.2 µM (inactive) with M14; 13.8 µM with HCT-15. The figures for the GI50 with HCT-116, in the test with UACC-257 and with NCI-H226 were 5.94 µM (inactive), 14.2 µM (inactive) and 17.4 µM (inactive), respectively.
As to `N#CCC(=O)N/N=C(/C(=O)Nc1ccccc1)C1C(=O)N(c2ccccc2)N=C1N` (stereo not given), the GI50 with DMS-273, in the test with UACC-62, in the test with CCRF-CEM, in the test with SNB-19, with IGROV-1 and with K562 was > 100 µM (inactive) each time. For the same compound, the GI50 was > 100 µM (inactive) with U-251; > 100 µM (inactive) with CAKI-1; > 100 µM (inactive) in the test on OVCAR-8; > 100 µM (inactive) in the test on A498; > 100 µM (inactive) in the test on M14; above 100 µM in the test with HCT-15. Also, the GI50 with HCT-116, in the test on UACC-257 and in the test with NCI-H226 was > 100 µM (inactive) in each case.
For `O=c1[nH]cc(COCC(O)CO)c(=O)[nH]1` (stereo not given), the GI50 in the test on DMS-273, in the test on UACC-62, in the test on CCRF-CEM, in the test on SNB-19, in the test with IGROV-1 and in the test with K562 was > 100 µM (inactive) each time. Also, the GI50 was > 100 µM (inactive) in the test with U-251; > 100 µM (inactive) with CAKI-1; > 100 µM (inactive) with OVCAR-8; > 100 µM (inactive) with A498; > 100 µM (inactive) in the test on M14; above 100 µM with HCT-15. The GI50 in the test on HCT-116, in the test with UACC-257 and in the test with NCI-H226 was > 100 µM (inactive) each time.
For `COc1ccccc1NC(=O)C1=C(C)NC(C)=C(C(=O)Nc2ccccc2OC)C1c1ccc([N+](=O)[O-])cc1`, the GI50 with DMS-273 is 86.7 µM (inactive); in the test on UACC-62 it was 59.6 µM (inactive); with CCRF-CEM, 19.5 µM (inactive); with SNB-19, 89.1 µM (inactive); in the test with IGROV-1 it was > 100 µM (inactive); in the test on K562 it was 49.3 µM (inactive). In addition, the GI50 is 86.1 µM (inactive) in the test with U-251; 21.7 µM (inactive) with CAKI-1; > 100 µM (inactive) in the test with OVCAR-8; > 100 µM (inactive) with A498; 85.7 µM (inactive) in the test on M14; above 100 µM with HCT-15. Moreover, the GI50 was 60.5 µM (inactive) with HCT-116, > 100 µM (inactive) in the test with UACC-257 and > 100 µM (inactive) in the test with NCI-H226.
As to `Cc1c2ccnc(C(N)=O)c2c(C)c2c1[nH]c1ccccc12`, the GI50 is 2.39 µM (inactive) in the test on DMS-273; 4.92 µM (inactive) with UACC-62; 4.73 µM (inactive) in the test with CCRF-CEM; 8.13 µM (inactive) in the test on SNB-19; 9.2 µM (inactive) in the test on IGROV-1; 11 µM (inactive) in the test on K562. The GI50 was 8.51 µM (inactive) in the test on U-251; 3.83 µM (inactive) with CAKI-1; 4.13 µM (inactive) in the test on OVCAR-8; 8.18 µM (inactive) in the test with A498; 6.58 µM (inactive) in the test with M14; 4.1 µM with HCT-15. Moreover, the results for the GI50 with HCT-116, with UACC-257 and with NCI-H226 were 2.4 µM (inactive), 10.5 µM (inactive) and 6.65 µM (inactive), respectively.
